As a reminder, the inhibition is the percentage by which the read-out fell short of the control. Read a high inhibition as a response far below the control.

The test system of this assay is Arachidonate 5-lipoxygenase (Cavia porcellus). As to the kind of experiment: Inhibitory activity against 5-lipoxygenase at a dose of 0.1 mM.
As to `CCCCC/C=C\C\C=C/C=C/C=C/C1CC1CCCCC(=O)O` (stereo not given), the inhibition came out at 86%.

The molecule `CCCCC/C=C\C\C=C/C=C/C=C/C1CC1CCCC(=O)O` (stereo not given) registered an inhibition of 98%.

`CCCCC/C=C\C/C=C\C/C=C\CC1CC1CCCC(=O)O` (stereo not given): the inhibition stood at 5%.

Take `CCCCC/C=C\C/C=C\C/C=C\C=C\C(CO)CCCC(=O)O` (stereo not given): the inhibition was 47%.

`CCCCCCCCCCCCCCC1CC1CCCC(=O)O` (stereo in doubt; 23): the inhibition stood at 49%.

Molecule `CCCCC/C=C\C/C=C\C/C=C\C1(/C=C\CCCC(=O)O)CC1` displayed an inhibition of 34%.

The molecule `CCCCC/C=C\C\C=C/C=C/C=C/C1SC1CCCC(=O)OC` (stereo not given) gave an inhibition of 60%.

With `CCCCC/C=C\C\C=C/C=C/C=C/[C@@H]1O[C@H]1CCCC(=O)O`, the inhibition is 78%.

In turn, `CCCCC/C=C\C/C=C\C/C=C\C=C\C(=O)CCCC(=O)OC` had an inhibition of 93%.

Molecule `CCCCCCCCCCCCCCC1CC1CCCC(=O)O` (stereo in doubt; 25) displayed an inhibition of 1%.

These data come from ChEMBL document CHEMBL1122312, “Synthesis and 5-lipoxygenase inhibitory activities of eicosanoid compounds” (J Med Chem, 1983).
